≈ marks a conversion by molar mass, not a printed value.
Key:
[1] = Solubility of crystal form I in different solvents (visual, room temperature); assay type: physicochemical
Method: Solubility Study of crystal form I of compound 5-3:1-1.5 mg of crystal form I of compound 5-3 was added to a flask at room temperature, a single organic solvent or a mixed solvent was added in small quantities and many times until the visual solution was clear or no solid particles were present, determined the solubility of crystal form I in different solvents, the results were shown in Table 2.

hOX2R = biological target: T1, hOX2R (Homo sapiens, UniProt O43614); assay: In vitro test of OX2R: calcium signal change in HEK293-OX2 cells detected with FLIPR; assay type: cell-based
T1 construct: expressed in transfected cells
T1 sequence (O43614 1-444): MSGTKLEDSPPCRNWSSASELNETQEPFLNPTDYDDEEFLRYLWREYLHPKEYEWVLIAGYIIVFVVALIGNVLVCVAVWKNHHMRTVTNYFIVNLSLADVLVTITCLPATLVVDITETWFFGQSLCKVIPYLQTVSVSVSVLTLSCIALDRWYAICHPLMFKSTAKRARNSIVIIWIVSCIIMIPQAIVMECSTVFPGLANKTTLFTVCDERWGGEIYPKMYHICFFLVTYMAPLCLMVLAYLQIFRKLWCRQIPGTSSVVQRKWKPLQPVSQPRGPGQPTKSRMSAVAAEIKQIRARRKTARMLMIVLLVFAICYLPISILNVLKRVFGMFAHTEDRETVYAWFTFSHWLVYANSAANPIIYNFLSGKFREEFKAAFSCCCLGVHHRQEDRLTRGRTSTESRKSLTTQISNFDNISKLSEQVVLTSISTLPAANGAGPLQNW

hOX1R = biological target: T2, hOX1R (Homo sapiens, UniProt O43613); assay: In vitro test of OX1R: calcium signal change in HEK293-OX1 cells detected with FLIPR; assay type: cell-based
T2 construct: expressed in transfected cells
T2 sequence (O43613 1-425): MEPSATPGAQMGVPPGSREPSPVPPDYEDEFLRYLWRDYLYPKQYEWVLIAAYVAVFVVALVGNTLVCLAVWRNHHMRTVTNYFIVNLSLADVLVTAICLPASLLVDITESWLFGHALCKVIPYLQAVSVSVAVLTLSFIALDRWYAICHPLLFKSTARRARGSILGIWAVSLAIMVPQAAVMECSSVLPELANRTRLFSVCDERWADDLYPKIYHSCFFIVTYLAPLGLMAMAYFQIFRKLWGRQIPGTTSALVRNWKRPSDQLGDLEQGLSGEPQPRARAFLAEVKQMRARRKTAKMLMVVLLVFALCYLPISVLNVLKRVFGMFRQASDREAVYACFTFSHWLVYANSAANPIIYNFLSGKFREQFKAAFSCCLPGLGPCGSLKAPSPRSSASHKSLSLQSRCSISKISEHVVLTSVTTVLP

[2] = Solubility of crystal form II in different aqueous media (37° C., 24 hours, HPLC); assay type: physicochemical; conditions: for Appearance: 10 mg in 1 mL
[3] = Simulated fasting intestinal fluid
[4] = Simulated postprandial intestinal fluid

Which results are given for `Cc1ccc(-c2ncccn2)c(C(=O)N2C3CCC2[C@@H](COc2ccc(F)cn2)CC3)c1` (stereo partly drawn) [crystal form I]?
solubility ([1]; organic solvent or mixture, thermodynamic from solid, 1,4-dioxane): > 57 mg/mL; solubility ([1]; organic solvent or mixture, thermodynamic from solid, ACN): 20 to 50 mg/mL (≈ 46.2 to 116 mM); solubility ([1]; organic solvent or mixture, thermodynamic from solid, Acetone): > 52 mg/mL; solubility ([1]; organic solvent or mixture, thermodynamic from solid, EtOAc): 19 to 48 mg/mL (≈ 43.9 to 111 mM); solubility ([1]; organic solvent or mixture, thermodynamic from solid, EtOH): 22 to 55 mg/mL (≈ 50.9 to 127 mM); solubility ([1]; organic solvent or mixture, thermodynamic from solid, IPA): 10 to 20 mg/mL (≈ 23.1 to 46.2 mM); solubility ([1]; organic solvent or mixture, thermodynamic from solid, MEK): > 54 mg/mL; solubility ([1]; organic solvent or mixture, thermodynamic from solid, MIBK): 24 to 60 mg/mL (≈ 55.5 to 139 mM); solubility ([1]; organic solvent or mixture, thermodynamic from solid, MTBE): < 1 mg/mL; solubility ([1]; organic solvent or mixture, thermodynamic from solid, MeOH): > 53 mg/mL; solubility ([1]; organic solvent or mixture, thermodynamic from solid, MeOH—H2O (3:1)): 18 to 46 mg/mL (≈ 41.6 to 106 mM); solubility ([1]; organic solvent or mixture, thermodynamic from solid, THF): > 53 mg/mL; solubility ([1]; organic solvent or mixture, thermodynamic from solid, Toluene): > 54 mg/mL; solubility ([1]; organic solvent or mixture, thermodynamic from solid, n-butanol): 22 to 55 mg/mL (≈ 50.9 to 127 mM); solubility ([1]; thermodynamic from solid, water): < 1 mg/mL

Which IC50 (hOX2R) does the source give for `Cc1ccc(-c2ncccn2)c(C(=O)N2C3CCC2[C@@H](COc2ccc(F)cn2)CC3)c1` (stereo partly drawn) [Compound 5-3] here?
The IC50 was < 0.05 µM.

What about the IC50 (hOX1R) of the same molecule?
The IC50 was < 0.05 µM.

Which “Crystal form of residual solid” value ([2]; 0.1N HCl) does the source give for `Cc1ccc(-c2ncccn2)c(C(=O)N2C3CCC2[C@@H](COc2ccc(F)cn2)CC3)c1` (stereo partly drawn) [crystal form II] here?
The value was “crystal form II”.

What about the “Final pH” value ([2]; 0.1N HCl) of the same molecule?
The value was 0.80.

And the “Solubility (descriptive)” value ([2]; 0.1N HCl)?
The value was “Slightly soluble”.

What about the Appearance ([2]; 0.1N HCl) of the same molecule?
Its Appearance is “turbid”.

And the “Crystal form of residual solid” value ([2]; Simulate gastric fluid)?
The value was “crystal form II”.

What about the “Final pH” value ([2]; Simulate gastric fluid) of the same molecule?
The value was 1.88.

What about the “Solubility (descriptive)” value ([2]; Simulate gastric fluid) of the same molecule?
Its value is “Slightly soluble”.

What about the Appearance ([2]; Simulate gastric fluid) of the same molecule?
The Appearance was “turbid”.

What about the “Crystal form of residual solid” value [2, 3] of the same molecule?
Its value is “crystal form II”.

What about the “Final pH” value [2, 3] of the same molecule?
The value was 6.65.

What about the “Solubility (descriptive)” value [2, 3] of the same molecule?
Its value is “Slightly soluble”.

What about the Appearance [2, 3] of the same molecule?
Its Appearance is “turbid”.

And the “Crystal form of residual solid” value [2, 4]?
Its value is “crystal form II”.

And the “Final pH” value [2, 4]?
Its value is 5.04.

And the “Solubility (descriptive)” value [2, 4]?
Its value is “Slightly soluble”.

And the Appearance [2, 4]?
Its Appearance is “turbid”.

What about the solubility at 24 h ([2]; pH 0.8, simulated gastric fluid, thermodynamic from solid, 0.1N HCl) of the same molecule?
Its solubility at 24 h is 0.42 mg/mL (≈ 0.971 mM).

What about the solubility at 24 h ([2]; pH 1.88, simulated gastric fluid, thermodynamic from solid, Simulate gastric fluid) of the same molecule?
The solubility at 24 h was 0.27 mg/mL (≈ 0.624 mM).

And the solubility at 24 h ([2]; pH 5.04, fessif, thermodynamic from solid, Simulated postprandial intestinal fluid)?
The solubility at 24 h was 0.29 mg/mL (≈ 0.671 mM).

What about the solubility at 24 h ([2]; pH 6.65, fassif, thermodynamic from solid, Simulated fasting intestinal fluid) of the same molecule?
The solubility at 24 h was 0.18 mg/mL (≈ 0.416 mM).

What about the solubility at 24 h ([2]; pH 7.95, thermodynamic from solid, water) of the same molecule?
The solubility at 24 h was 0.14 mg/mL (≈ 0.324 mM).

What about the “Crystal form of residual solid” value ([2]; water) of the same molecule?
Its value is “crystal form II”.

And the “Final pH” value ([2]; water)?
The value was 7.95.

What about the “Solubility (descriptive)” value ([2]; water) of the same molecule?
Its value is “Slightly soluble”.

What about the Appearance ([2]; water) of the same molecule?
Its Appearance is “turbid”.
